Data set [1] relates to damaging effects on the joint structures by Freund's adjuvant. Kind of data set: Study on rats: damage to joint structures by Freund's adjuvant. The data set is classed as in vivo.
Data set [2] has as its system gonarthritis. Kind of data set: Clinical trial of intra-articular sodium clodronate in evident gonarthritis. The class given is in vivo, patients. An excerpt: (§1) The low pH used was dictated by stability problems, +which made less acid values of the solutions unacceptable.
Data set [3] deals with gonalgia and gonarthrosis. Kind of data set: Multicenter clinical study of intra-articular clodronate. The class given is in vivo, patients. The conditions noted are these: 2 mg once a week over 4 consecutive weeks.
Source text: as §1

Data set [4] concerns synovitis secondary to knee osteoarthritis. The conditions noted are these: patients with synovitis secondary to knee osteoarthritis; cited from earlier work.
Data set [5] has as its system gonarthritis. Kind of data set: Preliminary clinical trial of intra-articular infiltration, responders by Womac 20 and Womac 50. Conditions: for Womac 20 (responders, 20% improvement in the symptoms) / Womac 50 (responders, 50% improvement in the symptoms): patients with gonarthritis, % of patients. The data set is classed as in vivo, patients. On the procedure: Preliminary clinical trials with the formulations according to the invention were based on the measurement of Womac 20 and Womac 50, ie. a 20% and 50% improvement in the symptoms to establish the responders to the treatment (Ann Rheum Dis. 2005). Recently, to assess the effectiveness of intra-articular clodronic acid, 1 mg of clodronic acid is administered in patients with gonarthritis obtaining an improvement in symptoms which, when evaluated with Womac 50, related to 32% of the patients. 15 patients suffering from gonarthritis received, according to the invention, an infiltration of 2 ml of solution constituted by 20 mg of hyaluronic acid (Hyalgan) together with 1 mg of clodronic acid once a week for 3 weeks. At the end of the infiltration cycle, as reassumed in the following table, 58% of the patients were responders according to Womac 20, and 37% were responders according to Womac 50. […] The final result of 3 weekly infiltrations of the combination of the two drugs was also better than the cycle with 5 weekly infiltrations of hyaluronic acid (Womac 20:51% and Womac 50:30%) or clodronic acid (Womac 20:54% and Womac 50:32%).

Where [6] appears, read: 2 ml intra-articular infiltration once a week for 3 weeks.
[7] abbreviates: 2 ml intra-articular infiltration once a week for 5 weeks.

Entries after “also recorded” stand apart in the source; their conditions may differ.

On to `O=P(O)(O)C(Cl)(Cl)P(=O)(O)O` [sodium clodronate], for which the “inhibition of damaging effects on the joint structures by Freund's adjuvant” value in data set [1] is recorded as “able to inhibit damaging effects on the joint structures”. For the same molecule, in the data set on gonarthritis [2] (after 5 intra-articular injections of 2 mg), the “attenuation of pain and recovery of joint movement” value is “interesting results were observed”. Also, in the data set with gonarthritis [2] (clodronate alone intra-articularly, acidic solution, observed in the trials of b9 and b10), the “adverse events: pain response at the time of the injection” value was “some adverse events were also observed; also recorded: normally occurs”. Besides, in data set [3], the “response to intra-articular administration” value is recorded as “best responses”. The “patient's symptomatology” value in data set [4] is listed as “significant improvement”.
As to `O=P(O)(O)C(Cl)(Cl)P(=O)(O)O` [Clodronic acid, clodronic acid], in the data set on gonarthritis [5] (1 mg clodronic acid intra-articular in patients with gonarthritis, regimen not stated, % of the patients), the “improvement in symptoms evaluated with Womac 50” value is 32%. Besides, in the data set on gonarthritis [5] (setting [6]), the “Womac 20 (responders, 20% improvement in the symptoms)” value is recorded as 43% and the “Womac 50 (responders, 50% improvement in the symptoms)” value was found to be 27%. Moreover, in the data set on gonarthritis [5] (setting [7]), the “Womac 20 (responders, 20% improvement in the symptoms)” value was determined as 54% and the “Womac 50 (responders, 50% improvement in the symptoms)” value is reported as 32%.
Take sodium hyaluronate: in the data set on gonarthritis [5] (setting [6]), the “Womac 20 (responders, 20% improvement in the symptoms)” value worked out at 41% and the “Womac 50 (responders, 50% improvement in the symptoms)” value is given as 24%. Further, in the data set on gonarthritis [5] (setting [7]), the “Womac 20 (responders, 20% improvement in the symptoms)” value came to 51% and the “Womac 50 (responders, 50% improvement in the symptoms)” value is 30%.

(Values after US9943540B2, “Pharmaceutical formulation for the treatment of osteoarthritis containing clodronic acid and hyaluronic acid” (ABIOGEN PHARMA S.P.A., priority 2005, dated 2018).)
